The numbers were not newly measured in US5888537A, “Vinca alkaloid vesicles with enhanced efficacy and tumor targeting properties” (priority 1997, dated 1999), which cites them from elsewhere.

Like-named read-outs stand apart in the source and are kept apart here.

For this data set the following is noted: clinical use, background.

As to `CC[C@]1(O)C[C@@H]2CN(CCc3c([nH]c4ccccc34)[C@@](C(=O)OC)(c3cc4c(cc3OC)N(C)[C@H]3[C@@](O)(C(=O)OC)[C@H](OC(C)=O)[C@]5(CC)C=CCN6CC[C@]43[C@@H]65)C2)C1` [vinblastine], the side effect result was “Alopecia and hair loss”.
`CC[C@]1(O)C[C@H]2CN(CCc3c([nH]c4ccccc34)[C@@](C(=O)OC)(c3cc4c(cc3OC)N(C=O)[C@H]3[C@@](O)(C(=O)OC)[C@H](OC(C)=O)[C@]5(CC)C=CCN6CC[C@]43[C@@H]65)C2)C1` [Free Vcr, vincristine]: the side effect result by setting is: (listed as Vincristine) “Neurotoxicity”; (listed as vincristine) “Alopecia and hair loss”.
